For 48 compounds, Glucose absorption results are on record in patent publication US20080207614A1, “QUINAZOLINE DERIVATIVES FOR THE TREATMENT AND PREVENTION OF DIABETES AND OBESITY” (SK CHEMICALS CO., LTD., priority 2004, published 2008).

The structures appear in SMILES notation.

The assay deals with C2C12 muscle cells. Kind of assay: Analysis of glucose absorption (2-deoxyglucose) in differentiated C2C12 muscle cells. The format is cell-based. As to conditions: test materials 10 μM, times relative to control group. The procedure:
C2C12 muscle cells were cultured in DMEM (Dulbecco's modified Eagle's medium) containing 10% bovine calf serum. When the cell density increased to about 85 to 90%, the culture medium was replaced with 1% bovine calf serum and cell differentiation was induced for 6 days. Completely differentiated cells were cultured for 3 hours with Krebs-Ringer buffer (KRB) containing 5 mM glucose. The test materials were added at a concentration of 10 μM. 30 minutes later, 0.2 μCi 2-deoxyglucose was added. KRB was removed 20 minutes later and the cells were washed for 3 times with cold PBS. The cells were lysed with 0.5N NaOH and counted using a radioactive counter.
The compound `OCCOCCNc1nc(-c2ccc(Cl)cc2)nc2ccccc12` [Compound 269, 2-{2-[2-(4-Chlorophenyl)-quinazolino-4-ylamino]-ethoxy}-ethanol] returned a Glucose absorption of 1.2.

Compound `Fc1ccc(Nc2nc(-c3ccccc3)nc3ccccc23)cc1` [Compound 76, (4-Fluorophenyl)-(2-phenylquinazolino-4-yl)-amine] gave a Glucose absorption of 1.0. `OCCOCCNc1nc(C2CCCCC2)nc2ccccc12` [Compound 209, 2-[2-(2-Cyclohexylquinazolino-4-ylamino)-ethoxy]-ethanol]: the Glucose absorption is given as 1.1.

On to `CCCNc1nc(SCC)nc2ccccc12` [Compound 31, (2-Ethylsulfanylquinazolino-4-yl)-propylamine], for which the Glucose absorption is recorded as 1.1. For `c1ccc(-c2nc(NCCc3ccccn3)c3ccccc3n2)cc1` [Compound 102, (2-Phenylquinazolino-4-yl)-(2-pyridino-2-ylethyl)-amine] the value was 1.2. As for `c1ccc(CCCCNc2nc(Cc3ccccc3)nc3ccccc23)cc1` [Compound 216, (2-Benzylquinazolino-4-yl)-(4-phenylbutyl)-amine], the Glucose absorption is on record as 2.6. For `OC(CNc1nc(-c2ccccc2)nc2ccccc12)c1ccccc1` (stereo not drawn) [Compound 146, 1-Phenyl-2-(2-phenylquinazolino-4-ylamino)-ethanol] the value was 2.3; for `c1ccc(CNc2nc(Cc3ccccc3)nc3ccccc23)cc1` [Compound 211, Benzyl-(2-benzylquinazolino-4-yl)-amine], 1.3; for `Clc1ccc(CCNc2nc(-c3ccccc3)nc3ccccc23)c(Cl)c1` [Compound 127, [2-(2,4-Dichlorophenyl)-ethyl]-(2-phenylquinazolino-4-yl)-amine], 1.4.

For the compound `COc1cccc(CNc2nc(-c3ccccn3)nc3ccccc23)c1` [Compound 224, (3-Methoxybenzyl)-(2-pyridino-2-ylquinazolino-4-yl)-amine], the Glucose absorption turned out to be 1.1. Compound `COc1cc(CNc2nc(Cc3ccccc3)nc3ccccc23)cc(OC)c1OC` [Compound 332, (2-Benzylquinazolino-4-yl)-(3,4,5-trimethoxybenzyl)-amine] had a Glucose absorption of 1.1. `COc1cc(OC)c(CNc2nc(Cc3ccccc3)nc3ccccc23)c(OC)c1` [Compound 335, (2-Benzylquinazolino-4-yl)-(2,4,6-trimethoxybenzyl)-amine]: the Glucose absorption worked out at 1.1. Take `Clc1ccc(-c2nc(NCCc3ccccc3)c3ccccc3n2)cc1` [Compound 263, [2-(4-Chlorophenyl)-quinazolino-4-yl]-phenethylamine]: the Glucose absorption stood at 1.1.

`Fc1cccc(CCNc2nc(-c3ccc(Cl)cc3)nc3ccccc23)c1` [Compound 268, [2-(4-Chlorophenyl)-quinazolino-4-yl]-[2-(3-fluorophenyl)-ethyl]-amine] had a Glucose absorption of 1.1. With `Clc1ccc(-c2nc(NCc3ccccc3)c3ccccc3n2)cc1` [Compound 259, Benzyl-[2-(4-chlorophenyl)-quinazolino-4-yl]-amine] the figure was 1.4. For `c1ccc(-c2nc(NCC3CCCC3)c3ccccc3n2)cc1` [Compound 159, Cyclopentylmethyl-(2-phenylquinazolino-4-yl)-amine] the value was 2.6; for `FC(F)(F)c1cccc(CNc2nc(-c3cccnc3)nc3ccccc23)c1` [Compound 238, (2-Pyridino-3-ylquinazolino-4-yl)-(3-trifluoromethylbenzyl)-amine], 1.0.

`CCCCNc1nc(-c2ccccc2)nc2ccccc12` [Compound 56, Butyl-(2-phenylquinazolino-4-yl)-amine] had a Glucose absorption of 1.1. With `OCCNc1nc(-c2cccnc2)nc2ccccc12` [Compound 246, 2-(2-Pyridino-3-ylquinazolino-4-ylamino)-ethanol], the Glucose absorption is 1.2. For `CCC(COC)Nc1nc(-c2ccccc2)nc2ccccc12` (stereo not drawn) [Compound 104, (1-Methoxymethylpropyl)-(2-phenylquinazolino-4-yl)-amine] the value was 1.0. With `C=CCNc1nc(-c2ccccc2)nc2ccccc12` [Compound 97, Allyl-(2-phenylquinazolino-4-yl)-amine] the figure was 1.0. For `c1ccc(CCCCNc2nc(-c3ccncc3)nc3ccccc23)cc1` [Compound 252, (4-Phenylbutyl)-(2-pyridino-4-ylquinazolino-4-yl)-amine] the value was 0.9.

Take `CC(C)c1nc(NCCOCCO)c2ccccc2n1` [Compound 185, 2-[2-(2-Isopropylquinazolino-4-ylamino)-ethoxy]-ethanol]: the Glucose absorption is recorded as 1.4. `c1ccc(-c2nc(NCc3ccncc3)c3ccccc3n2)cc1` [Compound 141, (2-Phenylquinazolino-4-yl)-pyridino-4-ylmethylamine] showed a Glucose absorption of 2.1.

In turn, `c1ccc2c(NCc3ccc4c(c3)OCO4)nc(C3CCCCC3)nc2c1` [Compound 206, Benzo[1,3]dioxol-5-ylmethyl-(2-cyclohexylquinazolino-4-yl)-amine] returned a Glucose absorption of 1.4. For `COc1cccc(CNc2nc(-c3cccnc3)nc3ccccc23)c1` [Compound 236, (3-Methoxybenzyl)-(2-pyridino-3-ylquinazolino-4-yl)-amine] the value was 1.2; for `c1ccc(Cc2nc(NCc3cccc4ccccc34)c3ccccc3n2)cc1` [Compound 217, (2-Benzylquinazolino-4-yl)-naphthaleno-1-ylmethylamine], 1.2; for `Cc1cc(C)c(Nc2nc(-c3ccccc3)nc3ccccc23)c(C)c1` [Compound 78, (2-Phenylquinazolino-4-yl)-(2,4,6-trimethyl-phenyl)-amine], 1.4.

In the case of `Fc1ccccc1CNc1nc(-c2ccccc2)nc2ccccc12` [Compound 94, (2-Fluorobenzyl)-(2-phenylquinazolino-4-yl)-amine], the Glucose absorption was 1.3.

Compound `c1ccc(CCCCCNc2nc(-c3ccccc3)nc3ccccc23)cc1` [Compound 53, (5-Phenyl-pentyl)-(2-phenylquinazolino-4-yl)-amine] registered a Glucose absorption of 1.2. For `COc1ccc(CNc2nc(Cc3ccccc3)nc3ccccc23)c(OC)c1` [Compound 333, (2-Benzylquinazolino-4-yl)-(2,4-dimethoxybenzyl)-amine] the value was 1.2.

With `CCCCN(CCO)c1nc(-c2ccccc2)nc2ccccc12` [Compound 157, 2-[Butyl-(2-phenylquinazolino-4-yl)-amino]-ethanol], the Glucose absorption worked out at 2.0. `COc1ccc(Nc2nc(-c3ccccc3)nc3ccccc23)cc1O` [Compound 84, 2-Methoxy-5-(2-phenylquinazolino-4-ylamino)phenol] had a Glucose absorption of 1.0. For `CCc1ccc(Nc2nc(-c3ccccc3)nc3ccccc23)cc1` [Compound 75, (4-Ethyl-phenyl)-(2-phenylquinazolino-4-yl)-amine] the value was 1.3; for `CC(C)(C)c1nc(NCc2cccc(F)c2)c2ccccc2n1` [Compound 195, (2-tert-Butylquinazolino-4-yl)-(3-fluorobenzyl)-amine], 1.2; for `Oc1ccccc1CCNc1nc(-c2ccccc2)nc2ccccc12` [Compound 152, 2-[2-(2-Phenylquinazolino-4-ylamino)-ethyl]-phenol], 2.4. With `OCCOCCNc1nc(-c2ccccn2)nc2ccccc12` [Compound 233, 2-[2-(2-Pyridino-2-ylquinazolino-4-ylamino)-ethoxy]-ethanol] the figure was 1.4; with `OCCCCCNc1nc(-c2ccccc2)nc2ccccc12` [Compound 85, 5-(2-Phenylquinazolino-4-ylamino)-pentane-1-ol], 1.0; with `CC(C)Nc1nc(-c2ccccc2)nc2ccccc12` [Compound 60, Isopropyl-(2-phenylquinazolino-4-yl)-amine], 1.0. Take `CCSc1nc(NCCOC)c2ccccc2n1` [Compound 34, (2-Ethylsulfanylquinazolino-4-yl)-(2-methoxy-ethyl)-amine]: the Glucose absorption turned out to be 1.3. In turn, `c1ccc(Oc2ccc(Nc3nc(-c4ccccc4)nc4ccccc34)cc2)cc1` [Compound 82, (4-Phenoxy-phenyl)-(2-phenylquinazolino-4-yl)-amine] returned a Glucose absorption of 1.2.

Compound `C=CCNc1nc(SCC)nc2ccccc12` [Compound 42, Allyl-(2-ethylsulfanylquinazolino-4-yl)-amine] gave a Glucose absorption of 1.1. `COc1cccc(CNc2nc(-c3ccc(Cl)cc3)nc3ccccc23)c1` [Compound 260, [2-(4-chlorophenyl)-quinazolino-4-yl]-(3-methoxybenzyl)-amine] showed a Glucose absorption of 1.4.

The compound `CCCCCCCCCCCc1ccc(Nc2nc(-c3ccccc3)nc3ccccc23)cc1` [Compound 74, (2-Phenylquinazolino-4-yl)-(4-undecyl-phenyl)-amine] displayed a Glucose absorption of 0.9. `c1ccc(Nc2nc(-c3ccccc3)nc3ccccc23)cc1` [Compound 69, Phenyl-(2-phenylquinazolino-4-yl)-amine] returned a Glucose absorption of 1.0. For `CCSc1nc(NC2CCN(Cc3ccccc3)CC2)c2ccccc2n1` [Compound 41, (1-Benzyl-piperidino-4-yl)-(2-ethylsulfanylquinazolino-4-yl)-amine] the value was 1.1. For `CCCCCCCCCCCCCCCCNc1nc(SCC)nc2ccccc12` [Compound 43, (2-Ethylsulfanylquinazolino-4-yl)-hexadecylamine] the value was 1.1. For `Cc1nc(NCCO)c2ccccc2n1` [Compound 174, 2-(2-Methylquinazolino-4-ylamino)-ethanol] the value was 1.2.
